{"source": "paper PMC3109731", "about": "(Journal of clinical psychopharmacology, 2010)", "key": {"[1]": {"details": "cited from earlier work"}, "[2]": {"system": "pregnant women with major depressive disorder", "experiment": "Depression level on the 17-item Hamilton Rating Scale for Depression", "type": "in vivo, human", "details": "for Mean HRS-D score: fluoxetine 10 to 80 mg daily"}, "[3]": {"details": "among the 16 subjects with 2 or more repeated depression scores"}}, "data": [{"smiles": "CNCCC(Oc1ccc(C(F)(F)F)cc1)c1ccccc1", "note": "(stereo not drawn) [FLX, fluoxetine]", "values": [{"measurement": "Expected half-life", "setting": "[1]", "value": "48 to 96", "unit": "h"}, {"measurement": "Time to reach steady-state concentration", "setting": "[1]", "value": "≤ 23", "unit": "days"}, {"measurement": "Mean HRS-D score", "setting": "[2]; 12 weeks postpartum", "value": "7.6 ± 6.5"}, {"measurement": "Mean HRS-D score", "setting": "[2]; 20 weeks of gestation", "value": "7.3 ± 3.3"}, {"measurement": "Mean HRS-D score", "setting": "[2]; 30 weeks of gestation", "value": "8.7 ± 5.6"}, {"measurement": "Mean HRS-D score", "setting": "[2]; 36 weeks of gestation", "value": "7.1 ± 3.2"}, {"measurement": "Subjects with mild to moderate depression levels (HRS-D 12–22)", "setting": "[2]; [3]", "value": 3, "unit": "subjects"}, {"measurement": "Subjects with remitted depression (HRS-D ≤8)", "setting": "[2]; [3]", "value": 13, "unit": "subjects"}, {"measurement": "Mean HRS-D score", "setting": "[2]; during delivery", "value": "8.3 ± 5.9"}]}]}
